Results on one molecule are retold here after US10149887B2, “Peptides and peptidomimetics in combination with t cell activating and/or checkpoint inhibiting agents for cancer treatment” (CanBas Co., Ltd., priority 2015, dated 2018).

Data set [1] deals with PKA. Description: In vitro kinase inhibition, PepTag Non-Radioactive Protein Kinase Assay. It is filed as biochemical.
Data set [2] deals with Jurkat cells. Description: M phase checkpoint abrogation / non specific toxicity, colchicine treated Jurkat cells. It is filed as cell-based. The note with it: dose with 5 μg/ml colchicine that produced Jurkat cell cycle disturbance, 24 hours. On the procedure:
Flow cytometry analysis of M phase checkpoint abrogation by the compounds was performed using human T cell leukemia Jurkat cell line treated with colchicine (5 μg/ml or 0.5 μg/ml) and various doses of peptide/peptidomimetics for 24 hr (FIG. 12). The DNA of the cells was stained and analyzed by flow cytometry as described above.
(§1) The “Appearance of side effect when used alone” indicates the peptide/peptidomimetic dose that produced Jurkat cell cycle disturbance, i.e., the appearance of significant amounts of SubG1 cells (dead cells) or cells in which the DNA content of each varies more than usual. […] The “G2 abrogating dose” indicates the peptide/peptidomimetic dose with 40 μg/ml bleomycine that produced detectable G2 checkpoint abrogation activity following treatment for 24 hours. The “Appearance of side effect when used with colchicine” indicates the peptide/peptidomimetic dose with 5 μg/ml colchicine that produced Jurkat cell cycle disturbance following treatment for 24 hours.
A comparison between G2 checkpoint abrogating activity and non specific toxicity (M checkpoint abrogation) by CB501 was performed. In brief, Jurkat cells were treated with 40 μg/ml bleomycin or 0.5 μg/ml colchicine for G2 checkpoint abrogating activity and non specific toxicity, respectively. The DNA amount in each of the treated cells was analyzed by flow cytometry, as previously described.

Data set [3] concerns the target CHK2 (Homo sapiens, UniProt O96017). Description: In vitro kinase inhibition, PepTag Non-Radioactive Protein Kinase Assay. It counts as biochemical. The note with it: purified CHK2 kinase. On the procedure:
Since two kinases, Chk1 and Chk2, are important for G2 checkpoint mechanism, kinase inhibition analysis of both enzymes was performed. In vitro kinase inhibition analysis was performed using “PepTag® Non-Radioactive Protein Kinase Assays”, Promega, according to company's protocol, except purified CHK2 kinase was used instead of PKC.

Data set [4] concerns Jurkat cells. The data set can be described thus: Side effect of peptide used alone: Jurkat cell cycle disturbance (flow cytometry). It is filed as cell-based. Particulars: dose that produced Jurkat cell cycle disturbance, peptide alone. The procedure: Cell-cycle analysis The cell cycle status of the cells treated with bleomycin or adriamcin were analyzed by flow cytometry as described by Kawabe (1997) Nature 385:454-458. In brief, two million cells were re-suspended and incubated in 200 μl Krishan's solution (0.1% Sodium citrate, 50 μg/ml PI, 20 μg/ml RNase A and 0.5% NP-40) for 1 hr at 4° C. and analyzed by a flow cytometry, FACScan™ (Beckton Dickinson, Mountain View, Calif.) with the program CELLQuest™ (Beckton Dickinson).
as §1

The subject of data set [5] is Jurkat cells. The data set can be described thus: G2 checkpoint abrogation, flow cytometry of bleomycin treated Jurkat cells. It counts as cell-based, human. The note with it: dose with 40 μg/ml bleomycine giving detectable G2 checkpoint abrogation, 24 hours. (A flow cytometer gives signals particle by particle.)
Method: Flow cytometry analysis of G2 checkpoint abrogation was performed using human leukemia derived Jurkat cell line. In brief, cultured cells were treated with various doses of peptide/peptidomimetic and 40 μg/ml bleomycine for 24 hr. The DNA of the cells was stained with propidium iodide and analyzed by flow cytometry.
The G2 checkpoint abrogating activity of various arginine rich sequences at different doses on cells treated with bleomycine was studied. Briefly, peptides were added to culture medium of Jurkat cells with bleomycin (40 μg/ml) at 0.2 μg/ml, 0.39 μg/ml, 0.78 μg/ml, 1.56 μg/ml, 3.125 μg/ml, 6.25 μg/ml, 12.5 μg/ml, 25 μg/ml and 50 μg/ml. Cells were subsequently harvested after 24 hours, stained with Krishan's solution, and analyzed with flow cytometry as previously described.

One may read the IC50 as the concentration that gives 50% inhibition.

Square brackets hold non-standard residues; d marks the D form. Peptide text beside a SMILES is read from it. dPhe(F5) = N[C@H](Cc1c(F)c(F)c(F)c(F)c1F)C(=O)O; dCha = N[C@H](CC1CCCCC1)C(=O)O

Chain of CHK2 (O96017 whole entry): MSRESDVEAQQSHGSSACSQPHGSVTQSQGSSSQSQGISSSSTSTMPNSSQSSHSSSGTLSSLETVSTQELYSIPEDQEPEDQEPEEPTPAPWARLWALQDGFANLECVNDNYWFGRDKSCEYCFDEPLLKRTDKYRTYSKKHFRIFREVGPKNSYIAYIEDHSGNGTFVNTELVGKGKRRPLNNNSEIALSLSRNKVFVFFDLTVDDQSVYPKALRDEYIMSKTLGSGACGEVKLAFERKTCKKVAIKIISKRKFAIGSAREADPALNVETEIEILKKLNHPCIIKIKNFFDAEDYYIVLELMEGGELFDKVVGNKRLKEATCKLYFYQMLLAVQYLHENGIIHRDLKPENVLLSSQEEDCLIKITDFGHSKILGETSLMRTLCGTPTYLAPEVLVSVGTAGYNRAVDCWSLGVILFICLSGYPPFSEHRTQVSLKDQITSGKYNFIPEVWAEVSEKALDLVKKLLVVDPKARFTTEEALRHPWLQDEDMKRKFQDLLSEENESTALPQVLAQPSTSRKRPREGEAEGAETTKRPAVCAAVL

As to `N=C(N)NCCC[C@@H](NC(=O)[C@@H](CCCCN)NC(=O)[C@@H](CCCCN)NC(=O)[C@@H](CCCNC(=N)N)NC(=O)[C@@H](CCCNC(=N)N)NC(=O)[C@@H](CCC(N)=O)NC(=O)[C@@H](CCCNC(=N)N)NC(=O)[C@@H](CCCNC(=N)N)NC(=O)[C@@H](CCCNC(=N)N)NC(=O)[C@@H](CC1CCCCC1)NC(=O)[C@@H](Cc1c(F)c(F)c(F)c(F)c1F)NC(=O)[C@@H](CCCNC(=N)N)NC(=O)[C@@H](CO)NC(=O)CNC(=O)[C@@H](CO)NC(=O)[C@@H](Cc1ccc(O)cc1)NC(=O)[C@H](N)Cc1ccc(O)cc1)C(=O)NCC(=O)N[C@H](Cc1ccc(O)cc1)C(=O)O` [CBP450, (d-Tyr)(d-Tyr)(d-Ser)(1-Gly)(d-Ser)(d-Arg)(d-Phe-2,3,4,5,6-F)(d-Cha)(d-Arg)(d-Arg)(d-Arg)(d-Gln)(d-Arg)(d-Arg)(d-Lys)(d-Lys)(d-Arg)(1-Gly)(d-Tyr)] (H-[dY][dY][dS]G[dS][dR][dPhe(F5)][dCha][dR][dR][dR][dQ][dR][dR][dK][dK][dR]G[dY]-OH; N-terminus and C-terminus assumed), the IC50 was above 400 µM in data set [1] and 10 µM in data set [3]. Also, the “Appearance of side effect when used with Colchicine” value in data set [2] is above 6.25 µM. Further, in data set [4], the “Appearance of side effect when used alone” value is above 6.25 µM. In addition, in data set [5], the G2 abrogating dose is at least 0.78 µM.
